Bridges are numbered along the chain shown (N, C = ends). The star is where a group is joined. Biotin = O=C1N[C@H]2[C@H](CS[C@H]2CCCCC(=O)*)N1
Experiments:
[1] = target: NADPH oxidase (macrophage membrane liposomes, cytochrome b558) (Cavia porcellus, UniProt H0UXC6); assay type: biochemical, guinea pig
[2] = PDI reductase activity, DE-GSSG reduction; assay type: biochemical; settings: for PDI activity of isolated Nox2 peptides: DE-GSSG reduction over a wide concentration range
[3] = tested on: p67^phox(1–526); assay: Effect of thiol reagents on binding of p67phox(1–526) to Nox2 peptide 24; settings: 1 h room temperature
[4] = tested on: p67^phox(1–212); assay: Peptide–protein binding assay, p67phox(1–212); settings: native (non-disulfide) peptide
[5] = tested on: p67^phox(1–526); assay: Peptide–protein binding assay, p67phox(1–526); settings: native (non-disulfide) peptide
[6] = tested on: recombinant 6His-p67^phox; assay: Peptide–protein binding assay / peptide walking, p67phox; settings: statement of Results section
[7] = tested on: recombinant 6His-p67^phox; settings: manuscript in preparation, cited from earlier work; for binding of p67phox to overlapping 15-mer peptides (peptide walking): ref Dahan and Pick; for binding of p67phox after introduction of intramolecular disulfide bond between C369 and C371 / binding of p67phox after reduction of the disulfide bond and alkylation of the reduced thiols: ref Fradin et al., [2011], [2012], Pick, Fradin and Pick
Excerpt: The cytosolic segment of Nox2 is also known as the dehydrogenase region (DHR) by virtue of the fact that it contains the NADPH- and FAD-binding sites and is homologous to the prokaryotic protein ferredoxin-NADP^+ reductase. The DHR comprises binding sites for p47^phox and Rac but, so far, there is no solid evidence for the identity of the binding site(s) for p67^phox. We approached this question by applying the “peptide walking” methodology (Joseph and Pick, [1995]; Dahan et al., [2012]; Dahan and Pick, [2012]). […] An important observation was that enhanced binding of p67^phox was evident only when the disulfide bond was established between two non-adjacent cysteines and between cysteines present in the same peptide; when the CGC tria ...

[8] = tested on: oxidized insulin; assay: Insulin reduction (turbidimetric) assay; assay type: biochemical; settings: recombinant PDI
[9] = tested on: NADPH oxidase; parameters: method as in 8 sources, one per row (each row's own in cited_ref): ref Shpungin et al., [1989] ||| ref Bellavite et al., [1983]; Gabig and Lefker, [1984] ||| ref Pick et al., [1987] ||| ref Le Cabec and Maridonneau-Parini, [1995] ||| ref Nishida et al., [2005] ||| ...; settings: ref Paes et al., [2011], cited from earlier work
[10] = tested on: p67^phox(1–526); assay: Protein–protein binding assay, p67phox(1–526); settings: homodimers, 0.5 μM, p67phox coated at 0.5 μM; one characteristic experiment (Figure 5A)
[11] = tested on: p67^phox(1–212); assay: Protein–protein binding assay, p67phox(1–212); settings: homodimers, 0.5 μM, p67phox coated at 0.5 μM; one characteristic experiment (Figure 5B)
[12] = target: T1, p67^phox(1–212) (UniProt P19878 1-212); assay: ELISA; peptide—protein binding assay as a1, with peptide 24 and the modified peptides, all in the reduced form, subjected to oxidation by 1 mM H2O2; settings: both partners purified
T1 construct: contains four cysteines (40, 45, 121, 165); source: E. coli, purified (Nickel Sepharose); not shown: 6His, N-terminal, kept
T1 sequence (looked up): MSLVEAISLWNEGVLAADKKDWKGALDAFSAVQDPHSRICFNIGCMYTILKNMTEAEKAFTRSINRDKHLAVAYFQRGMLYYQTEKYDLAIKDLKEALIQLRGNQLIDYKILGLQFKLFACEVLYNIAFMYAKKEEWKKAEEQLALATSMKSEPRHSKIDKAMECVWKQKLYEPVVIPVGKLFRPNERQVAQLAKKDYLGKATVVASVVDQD

## 16F16
[1]
  inhibition of oxidase activation, in words: Lack of an inhibitory effect

## NC(=O)C1=CN([C@@H]2O[C@H](COP(=O)(O)OP(=O)(O)OC[C@H]3O[C@@H](n4cnc5c(N)ncnc54)[C@H](OP(=O)(O)O)[C@@H]3O)[C@@H](O)[C@H]2O)C=CC1 [NADPH]
[2]; up to 125 μM
  replacement of DTT in the DE-GSSG reduction assay: could not be replaced

## CN(C)C(=O)/N=N/C(=O)N(C)C [diamide]
[3]; NEM 0.1 mM or diamide 5 mM, three experiments (Figure 2A,B)
  effect of pretreatment of p67phox on low affinity binding to native form of peptide 24: suppressed
[3]; p67^phox(1–526) 1.5 μM, diamide 5 mM, three experiments (Figure 2B)
  effect of diamide pretreatment of p67phox on binding to peptide 24 in the disulfide form: totally abolished

## IVGDWTEGLFNACGC [peptide 24, 15-mer Nox2 peptide, residues 357–371, CGC triad at C-terminus]
[4]
  binding of p67phox(1–212): low affinity
[5]
  binding of p67phox(1–526): low affinity
[6]
  increase in binding of p67phox on introduction of intramolecular disulfide bond linking C369 and C371: marked increase
[2]
  PDI activity of isolated Nox2 peptides: No PDI activity
[7]
  binding of p67phox to overlapping 15-mer peptides (peptide walking): binds preferentially
  binding of p67phox after introduction of intramolecular disulfide bond between C369 and C371: marked increase
  binding of p67phox after reduction of the disulfide bond and alkylation of the reduced thiols: totally abolished

## PDIA1: Recombinant PDI A1 (human), made in E. coli [reference compound]
[2]; 10 nM, DE-GSSG 0.8 μM, DTT 12.5 μM, pH 7.0, 24°C, mean ± SEM of 4 (PDIA1), 3 (PDIA3) experiments
  Vmax, PDI reductase activity (Figure 7C,D): 37,303 ± 1279
[2]; extrapolation of Vmax at 10 nM PDI to Vmax with 1 μM NusA-Nox2(357–570)
  reductase activity relative to NusA-Nox2(357–570): about 75 times
[8]
  concentration down to which activity could be measured in insulin reduction assay: 10 nM

## oxidized PDI: exogenous oxidized PDI
[9]
  effect of exogenous PDI on oxidase activation in vitro: enhance

## peptide 28: 15-mer Nox2 peptide, residues 369–383, CGC triad at N-terminus (CGCDKQEFQDAWKLP; UniProt P04839 369-383, looked up, fragment)
[4]
  binding of p67phox(1–212): low affinity
[5]
  binding of p67phox(1–526): low affinity
[6]
  increase in binding of p67phox on introduction of intramolecular disulfide bond linking C369 and C371: marked increase
[2]
  PDI activity of isolated Nox2 peptides: No PDI activity
[7]
  binding of p67phox to overlapping 15-mer peptides (peptide walking): binds preferentially
  binding of p67phox after introduction of intramolecular disulfide bond between C369 and C371: marked increase
  binding of p67phox after reduction of the disulfide bond and alkylation of the reduced thiols: totally abolished

## reduced PDI: exogenous reduced PDI
[9]
  effect of exogenous PDI on oxidase activation in vitro: diminish

B1: NusA-Nox2(328–570): fusion protein of NusA and Nox2 residues 328–570 (protein)
chain: KCPKVSKLEWHPFTLTSAPEEDFFSIHIRIVGDWTEGLFNACGCDKQEFQDAWKLPKIAVDGPFGTASEDVFSYEVVMLVGAGIGVTPFASILKSVWYKYCNNATNLKLKKIYFYWLCRDTHAFEWFADLLQLLESQMQERNNAGFLSYNIYLTGWDESQANHFAVHHDEEKDVITGLKQKTLYGRPNWDNEFKTIASQHPNTRIGVFLCGPEALAETLSKQSISNSESGPRGVHFIFNKENF
modifications: left off: NusA (E. coli), N-terminal, kept | His tag (from the purification on Nickel Sepharose), end not stated, state not stated
[10]
  binding of NusA-Nox2 to p67phox(1–526): significant binding
[11]
  binding of NusA-Nox2 to p67phox(1–212): significant binding

B2: Nox2 peptide 24 (357–371) with an intramolecular disulfide bond between C369 and C371 (peptide)
peptide: Biotin-SGSGIVGDWTEGLFNACGC-NH2
modifications: disulfide 17-19
SMILES: CC[C@H](C)[C@H](NC(=O)CNC(=O)[C@H](CO)NC(=O)CNC(=O)[C@H](CO)NC(=O)CCCC[C@@H]1SC[C@@H]2NC(=O)N[C@@H]21)C(=O)N[C@H](C(=O)NCC(=O)N[C@@H](CC(=O)O)C(=O)N[C@@H](Cc1c[nH]c2ccccc12)C(=O)N[C@H](C(=O)N[C@@H](CCC(=O)O)C(=O)NCC(=O)N[C@@H](CC(C)C)C(=O)N[C@@H](Cc1ccccc1)C(=O)N[C@@H](CC(N)=O)C(=O)N[C@@H](C)C(=O)N[C@H]1CSSC[C@@H](C(N)=O)NC(=O)CNC1=O)[C@@H](C)O)C(C)C
notes: spacer between the N-terminal biotin and the peptide, printed as Ser-Gly-Ser-Gly; also called 24N CGC S-S; 24N S-S; source: synthetic peptide (Mimotopes or Bachem), synthesized in the disulfide form; also made from the reduced peptide by oxidation with 1 mM H2O2; not shown: biotin, N-terminal, kept
[12]
  binding result: binds

B3: Nox2 peptide 24 analog with CGC replaced by CysGlyProCys, intramolecular disulfide bond between cysteines 369 and 372 (peptide)
peptide: Biotin-SGSGIVGDWTEGLFNACGPC-NH2
modifications: disulfide 17-20
SMILES: CC[C@H](C)[C@H](NC(=O)CNC(=O)[C@H](CO)NC(=O)CNC(=O)[C@H](CO)NC(=O)CCCC[C@@H]1SC[C@@H]2NC(=O)N[C@@H]21)C(=O)N[C@H](C(=O)NCC(=O)N[C@@H](CC(=O)O)C(=O)N[C@@H](Cc1c[nH]c2ccccc12)C(=O)N[C@H](C(=O)N[C@@H](CCC(=O)O)C(=O)NCC(=O)N[C@@H](CC(C)C)C(=O)N[C@@H](Cc1ccccc1)C(=O)N[C@@H](CC(N)=O)C(=O)N[C@@H](C)C(=O)N[C@H]1CSSC[C@@H](C(N)=O)NC(=O)[C@@H]2CCCN2C(=O)CNC1=O)[C@@H](C)O)C(C)C
notes: spacer between the N-terminal biotin and the peptide, printed as Ser-Gly-Ser-Gly; also called 24N CGPC S-S (disulfide form); source: synthetic peptide (Mimotopes or Bachem), synthesized in the disulfide form; also made from the reduced peptide by oxidation with 1 mM H2O2; not shown: biotin, N-terminal, kept
[12]
  binding result: binds

B4: Nox2 peptide 24 analog with CGC replaced by CysGlyHisCys, intramolecular disulfide bond between cysteines 369 and 372 (peptide)
peptide: Biotin-SGSGIVGDWTEGLFNACGHC-NH2
modifications: disulfide 17-20
SMILES: CC[C@H](C)[C@H](NC(=O)CNC(=O)[C@H](CO)NC(=O)CNC(=O)[C@H](CO)NC(=O)CCCC[C@@H]1SC[C@@H]2NC(=O)N[C@@H]21)C(=O)N[C@H](C(=O)NCC(=O)N[C@@H](CC(=O)O)C(=O)N[C@@H](Cc1c[nH]c2ccccc12)C(=O)N[C@H](C(=O)N[C@@H](CCC(=O)O)C(=O)NCC(=O)N[C@@H](CC(C)C)C(=O)N[C@@H](Cc1ccccc1)C(=O)N[C@@H](CC(N)=O)C(=O)N[C@@H](C)C(=O)N[C@H]1CSSC[C@@H](C(N)=O)NC(=O)[C@H](Cc2c[nH]cn2)NC(=O)CNC1=O)[C@@H](C)O)C(C)C
notes: spacer between the N-terminal biotin and the peptide, printed as Ser-Gly-Ser-Gly; also called 24N CGHC S-S (disulfide form); source: synthetic peptide (Mimotopes or Bachem), synthesized in the disulfide form; also made from the reduced peptide by oxidation with 1 mM H2O2; not shown: biotin, N-terminal, kept
[12]
  binding result: binds

B5: scrambled RNAse: ribonuclease A, with scrambled disulfide bonds from bovine pancreas (protein, UniProt P61823 27-150, looked up)
Ribonuclease pancreatic: KETAAAKFERQHMDSSTSAASSSNYCNQMMKSRNLTKDRCKPVNTFVHESLADVQAVCSQKNVACKNGQTNCYQSYSTMSITDCRETGSSKYPNCAYKTTQANKHIIVACEGNPYVPVHFDASV
modifications: scrambled disulfide bonds
notes: ribonuclease A, with scrambled disulfide bonds from bovine pancreas
[1]
  IC50, NADPH oxidase activation: could not be determined
  inhibition of oxidase activation, in words: ineffective
[9]; neutrophil membranes and recombinant cytosolic components
  inhibition of oxidase activation, amphiphile-dependent cell-free system: inhibit oxidase activation

B6: NusA-Nox2(372–570): fusion protein of NusA and Nox2 residues 372–570, lacks the CGC triad (protein)
chain: DKQEFQDAWKLPKIAVDGPFGTASEDVFSYEVVMLVGAGIGVTPFASILKSVWYKYCNNATNLKLKKIYFYWLCRDTHAFEWFADLLQLLESQMQERNNAGFLSYNIYLTGWDESQANHFAVHHDEEKDVITGLKQKTLYGRPNWDNEFKTIASQHPNTRIGVFLCGPEALAETLSKQSISNSESGPRGVHFIFNKENF
modifications: left off: NusA (E. coli), N-terminal, kept | His tag (from the purification on Nickel Sepharose), end not stated, state not stated
notes: fusion protein of NusA and Nox2 residues 372–570, lacks the CGC triad
[2]; 2 μM (Figure 6C)
  loss of PDI activity: almost complete loss of PDI activity
[2]; 2 μM, DE-GSSG 800 nM, DTT 12.5 μM, one characteristic experiment, DTT only 26,248
  Vmax, PDI reductase activity (Figure 6C): 31,920 milli relative fluorescence units per min

From PMC4316792, “The dehydrogenase region of the NADPH oxidase component Nox2 acts as a protein disulfide isomerase (PDI) resembling PDIA3 with a role in the binding of the activator protein p67^phox” (Frontiers in Chemistry, 2015)
